Test results from patent publication US10329292B2, “Substituted xanthine derivatives” (Boehringer Ingelheim International GmbH, priority 2017, dated 2019).
“Also recorded” adds a separate entry of the source.

Assays:
[1] = biological target: T1, TRPC5 channel (Homo sapiens, UniProt Q9UL62); assay: Assay A: Determination of TRPC5-inhibition (whole-cell patch clamp); assay type: cell-based; conditions: LaCl3-activated current
T1 construct: expressed in transfected cells; host or cells: HEK293 TREx (inducible expression)
T1 sequence (Q9UL62 1-973): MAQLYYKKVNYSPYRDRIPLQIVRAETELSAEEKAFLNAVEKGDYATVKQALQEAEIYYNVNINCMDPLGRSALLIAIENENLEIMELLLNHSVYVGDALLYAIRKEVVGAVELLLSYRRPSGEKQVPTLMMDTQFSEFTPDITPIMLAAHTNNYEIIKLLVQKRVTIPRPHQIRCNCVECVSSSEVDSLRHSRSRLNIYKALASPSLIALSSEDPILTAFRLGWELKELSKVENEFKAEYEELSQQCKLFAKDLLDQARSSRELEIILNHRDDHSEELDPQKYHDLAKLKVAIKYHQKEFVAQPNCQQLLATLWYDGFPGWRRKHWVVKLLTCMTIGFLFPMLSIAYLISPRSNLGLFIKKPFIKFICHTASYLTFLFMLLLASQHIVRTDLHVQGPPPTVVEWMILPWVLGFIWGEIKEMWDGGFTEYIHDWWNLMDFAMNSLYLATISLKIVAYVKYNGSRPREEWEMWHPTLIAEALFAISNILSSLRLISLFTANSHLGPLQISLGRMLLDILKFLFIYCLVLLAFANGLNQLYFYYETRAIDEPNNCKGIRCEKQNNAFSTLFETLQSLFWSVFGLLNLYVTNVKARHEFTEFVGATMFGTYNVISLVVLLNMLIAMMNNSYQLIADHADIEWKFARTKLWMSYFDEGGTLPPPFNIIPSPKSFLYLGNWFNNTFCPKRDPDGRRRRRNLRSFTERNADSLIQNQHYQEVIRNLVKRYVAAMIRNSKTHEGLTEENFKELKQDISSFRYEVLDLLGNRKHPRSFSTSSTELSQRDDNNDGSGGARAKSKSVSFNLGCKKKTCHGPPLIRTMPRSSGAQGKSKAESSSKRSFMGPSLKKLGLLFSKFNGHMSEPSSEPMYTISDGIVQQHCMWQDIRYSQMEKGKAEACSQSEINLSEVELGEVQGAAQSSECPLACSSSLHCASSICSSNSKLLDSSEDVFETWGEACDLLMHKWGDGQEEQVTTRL
Excerpt: Assay A: Determination of TRPC5-Inhibition
Patch clamp experiments permit the detection of currents through the TRPC5 channel in a cell line. In normal whole-cell patch clamp recordings, a glass electrode is brought into contact with a single cell and a high-resistance (gigaohm) seal is established with the cell membrane. The membrane is then ruptured to achieve the whole-cell configuration, permitting control of the voltage of the cell membrane and measurement of currents flowing across the membrane using the amplifier attached to the electrode and resulting in the replacement of cytoplasm with the pipette solution. A perfusion system permits control of the extracellular solution, including the addition of blockers and activators of the current. The current can be activated by including 1.4 μM free Ca2+ in the pipette (intracellular) solution, and 80 μM LaCl3 in the extracellular solution.
TRPC5 cells were induced 20-48 hours, removed from growth plates, and replated at low density (to attain good single-cell physical separation) on glass coverslips for measurement. In some cases, cells were grown in low density overnight on glass coverslips. Patch clamp recordings were made in the whole-cell mode with a holding potential of −40 mV. Every 5 seconds, a voltage ramp was applied from −120 to +100 mV, 400 ms in duration. Currents elicited were quantified at −80 mV and +80 mV. The internal solution consisted of 140 mM cesium aspartate, 10 mM HEDTA, 2 mM CaCl2, 2.27 mM MgCl2 and 10 mM HEPES, pH 7.2, with 1,400 nM calculated free Ca2+. The external solution consisted of 150 mM NaCl, 4.5 mM 15 KCl, 1 mM MgCl2, 2 mM CaCl2, 10 mM HEPES, 10 mM glucose, 1 mM EGTA, pH 7.4. Upon addition of LaCl3, TRPC5 current was induced only in TRPC5-expressing cells and not in parental HEK293 TREx cells. Removal of the LaCh stimulus causes most of the current to go away. Potential blockers were tested for ability to block both inward and outward currents in the continued presence of LaCl3.
IC50 of a compound of the invention was estimated by testing the compound 500 nM. […] Compounds blocking 50% or more at 500 nM are retested at multiple concentrations, and the % block is fitted by standard equations to determine IC50 accurately, using a ⅚ point concentration-response experiment.

[2] = biological target: T2, hERG channel (Homo sapiens, UniProt Q12809); assay: Assay B: Determination of hERG-inhibition (patch-clamp); assay type: cell-based; conditions: patch-clamp per Rast and Guth 2014
T2 construct: expressed in transfected cells
T2 sequence (Q12809 whole entry): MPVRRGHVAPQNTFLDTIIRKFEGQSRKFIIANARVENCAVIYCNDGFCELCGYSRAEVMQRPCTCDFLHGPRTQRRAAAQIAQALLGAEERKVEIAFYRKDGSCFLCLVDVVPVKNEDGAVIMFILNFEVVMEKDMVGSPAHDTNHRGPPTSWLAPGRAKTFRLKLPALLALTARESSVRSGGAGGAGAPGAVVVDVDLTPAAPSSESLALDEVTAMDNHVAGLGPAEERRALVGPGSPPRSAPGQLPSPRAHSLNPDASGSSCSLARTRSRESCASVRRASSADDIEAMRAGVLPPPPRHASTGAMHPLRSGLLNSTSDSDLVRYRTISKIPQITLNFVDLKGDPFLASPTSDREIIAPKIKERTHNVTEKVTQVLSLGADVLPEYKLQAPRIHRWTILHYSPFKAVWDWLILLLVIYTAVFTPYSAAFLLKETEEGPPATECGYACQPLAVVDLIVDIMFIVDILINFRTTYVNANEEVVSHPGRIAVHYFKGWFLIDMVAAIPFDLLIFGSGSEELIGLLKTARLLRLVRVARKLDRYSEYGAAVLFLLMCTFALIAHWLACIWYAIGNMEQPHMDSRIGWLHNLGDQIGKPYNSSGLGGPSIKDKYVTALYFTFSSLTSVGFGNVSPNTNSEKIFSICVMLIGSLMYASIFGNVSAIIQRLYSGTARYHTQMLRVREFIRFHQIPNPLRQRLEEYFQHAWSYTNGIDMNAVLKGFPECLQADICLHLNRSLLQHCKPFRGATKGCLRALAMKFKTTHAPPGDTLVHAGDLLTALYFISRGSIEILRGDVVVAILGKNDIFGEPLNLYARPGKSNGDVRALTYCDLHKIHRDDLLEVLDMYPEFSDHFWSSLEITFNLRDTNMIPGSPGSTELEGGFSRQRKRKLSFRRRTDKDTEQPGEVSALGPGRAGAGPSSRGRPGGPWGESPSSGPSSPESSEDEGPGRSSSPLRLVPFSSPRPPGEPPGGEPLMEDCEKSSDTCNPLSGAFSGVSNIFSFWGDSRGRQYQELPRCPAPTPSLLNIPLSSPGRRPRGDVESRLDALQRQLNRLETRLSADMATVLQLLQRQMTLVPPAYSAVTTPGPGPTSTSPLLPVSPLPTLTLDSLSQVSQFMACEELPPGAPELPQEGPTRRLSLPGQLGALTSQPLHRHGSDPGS
Description: Assay B: Determination of hERG-Inhibition
hERG-channel inhibition was determined as described in Rast G, Guth B D, Solubility assessment and on-line exposure confirmation in a patch-clamp assay for hERG (human ether-a-go-go-related gene) potassium channel inhibition, J Pharmacol Toxicol Methods. 2014 September-October; 70(2):182-7.

[3] = compounds of the present invention, TRPC5-expressing HEK293 TREx cells
[4] = compounds of the present invention
[5] = compounds of WO2014/143799, TRPC5-expressing HEK293 TREx cells

| SMILES | IC50 [1, 3] [µM] | IC50 [2, 4] [µM] | further results |
| --- | --- | --- | --- |
| CC(C)n1c(=O)n(CCCO)c(=O)c2c1nc(-c1cccnc1OC[C@H]1CC1(F)F)n2Cc1ccc(F)cc1 (single isomer, unassigned) [Example 21] | < 0.01 | > 10 |  |
| CC(C)n1c(=O)n(CCCO)c(=O)c2c1nc(-c1cccnc1OC[C@@H]1CC1(F)F)n2Cc1ccc(F)cc1 (single isomer, unassigned) [Example 22] | < 0.01 | > 10 |  |
| Cn1c(=O)n(CCCO)c(=O)c2c1nc(Oc1cccc(Cl)c1)n2Cc1cccc(Cl)c1 [Compound ID 260 in WO2014/143799, reference compound] |  |  | Assay A TRPC5 inhibition [1, 5]: potent TRPC5-inhibition; IC50 [1, 5]: < 0.01 µM; Assay B hERG inhibition ([2]; compounds of WO2014/143799): low μM range; IC50 ([2]; compounds of WO2014/143799): 1.9 µM |
| COc1ccccc1-c1nc2c(c(=O)n(CCCO)c(=O)n2C)n1Cc1ccc(F)cc1 [Compound ID 415 in WO2014/143799, reference compound] |  |  | Assay A TRPC5 inhibition [1, 5]: agonism (activation); also recorded: Agonist; IC50 ([2]; compounds of WO2014/143799): > 10 µM |
| CC(C)n1c(=O)n(CCCO)c(=O)c2c1nc(-c1cccnc1OCC1CC1)n2Cc1cc(F)cc(F)c1 [Example 1] | < 0.01 | > 10 |  |
| CC(C)n1c(=O)n(CCCO)c(=O)c2c1nc(-c1cccnc1OCC1CC1)n2Cc1ccc(C(F)(F)F)cc1 [Example 2] | < 0.01 | 8.3 |  |
| CC(C)n1c(=O)n(CCCO)c(=O)c2c1nc(-c1cccnc1OCC1CC1)n2Cc1ccc(F)c(F)c1 [Example 3] | < 0.01 | > 10 |  |
| Cc1ccc(Cn2c(-c3cccnc3OCC3CC3)nc3c2c(=O)n(CCCO)c(=O)n3C(C)C)cc1 [Example 4] | < 0.01 | > 10 |  |
| CC(C)n1c(=O)n(CCCO)c(=O)c2c1nc(-c1cccnc1OCC1CC1)n2Cc1ccc(Cl)cc1 [Example 5] | < 0.01 | > 10 |  |
| CC(C)n1c(=O)n(CCCO)c(=O)c2c1nc(-c1cccnc1OCC1CC1)n2Cc1ccc(F)cc1 [Example 6] | < 0.01 | > 10 |  |
| CC(C)n1c(=O)n(CCCO)c(=O)c2c1nc(-c1ccc(F)nc1OCC1CC1)n2Cc1ccc(F)cc1 [Example 7] | < 0.01 | > 10 |  |
| CC(C)n1c(=O)n(CCCO)c(=O)c2c1nc(-c1cccnc1OCC1CC1)n2Cc1ccc(Cl)cn1 [Example 8] | < 0.01 | > 10 |  |
| CC(C)n1c(=O)n(CCCO)c(=O)c2c1nc(-c1nccnc1OCC1CC1)n2Cc1ccccc1 [Example 9] | < 0.01 | > 10 |  |
| CC(C)n1c(=O)n(CCCO)c(=O)c2c1nc(-c1ccc(F)nc1OCC1CC1)n2Cc1ccccc1 [Example 10] | < 0.01 | > 10 |  |
| CCn1c(=O)n(CCCO)c(=O)c2c1nc(-c1nccnc1OCC1CC1)n2Cc1ccccc1 [Example 11] | < 0.01 | > 10 |  |
| Cn1c(=O)n(CCCO)c(=O)c2c1nc(-c1nccnc1OCC1CC1)n2Cc1ccc(Cl)cc1 [Example 12] | < 0.01 | > 10 |  |
| Cc1ccc(-c2nc3c(c(=O)n(CCCO)c(=O)n3C(C)C)n2Cc2ccccc2)c(OCC2CC2)n1 [Example 13] | < 0.01 | > 10 |  |
| Cc1nc(OCC2CC2)c(-c2nc3c(c(=O)n(CCCO)c(=O)n3C(C)C)n2Cc2ccc(F)cc2)cc1F [Example 14] | < 0.01 | 5.8 |  |
| Cc1nc(OCC2CC2)c(-c2nc3c(c(=O)n(CCCO)c(=O)n3C(C)C)n2Cc2ccccc2)cc1F [Example 15] | < 0.01 | 5.8 |  |
| CC(C)n1c(=O)n(CCCO)c(=O)c2c1nc(-c1cc(F)cnc1OCC1CC1)n2Cc1ccccc1 [Example 16] | < 0.01 | > 10 |  |
| CC(C)n1c(=O)n(CCCO)c(=O)c2c1nc(-c1cc(F)cnc1OCC1CC1)n2Cc1ccc(F)cc1 [Example 17] | < 0.01 | > 10 |  |
| CC(C)n1c(=O)n(CCCO)c(=O)c2c1nc(-c1cccnc1OCC1CC1)n2Cc1ccccc1 [Example 18] | < 0.01 | > 10 |  |
| CC(C)n1c(=O)n(CCCO)c(=O)c2c1nc(-c1cccnc1OC[C@@H]1CC1(F)F)n2Cc1ccccc1 [Example 19] | < 0.01 | > 10 |  |
| CC(C)n1c(=O)n(CCCO)c(=O)c2c1nc(-c1cccnc1OC[C@H]1CC1(F)F)n2Cc1ccccc1 [Example 20] | < 0.01 | > 10 |  |
| CC(C)n1c(=O)n(CC[C@@H](C)O)c(=O)c2c1nc(-c1cccnc1OCC1CC1)n2Cc1ccccc1 [Example 23] | < 0.01 | > 10 |  |
| CC(C)n1c(=O)n(CC[C@@H](C)O)c(=O)c2c1nc(-c1cccnc1OCC1CC1)n2Cc1ccc(F)cc1 [Example 24] | < 0.01 | > 10 |  |
| CC(C)n1c(=O)n(CC[C@@H](C)O)c(=O)c2c1nc(-c1cccnc1OCC1CC1)n2Cc1ccc(Cl)cc1 [Example 25] | < 0.01 | 7.6 |  |
